According to ChEMBL document CHEMBL1129898, “An exceptionally potent analog of sandramycin” (Bioorg Med Chem Lett, 1997):

Key:
Format in all cases: functional, cell-based
HL-60 = assay: The compound was tested in vitro for cytotoxic activity against HL-60 cell line (human promyelomic leukemia)
B16 = assay: The compound was tested in vitro for cytotoxic activity against B-16 cell line (mouse melanoma)
[1] = The compound was tested in vitro for cytotoxic activity against M24-MET cell line (human metastatic melanoma); conditions: M24met
786-0 = assay: The compound was tested in vitro for cytotoxic activity against 786-O cell line (human perirenal carcinoma)
[2] = The compound was tested in vitro for cytotoxic activity against UCLA-P3 cell line (human lung adenocarcinoma); conditions: UCLA P-3
MOLT-4 = assay: The compound was tested in vitro for cytotoxic activity against Molt-4 cell line (human T-cell leukemia)
MCF7 = assay: The compound was tested in vitro for cytotoxic activity against MCF-7 cell line (human breast carcinoma)
SK-MEL-28 = assay: The compound was tested in vitro for cytotoxic activity against SK-MEL 28 cell line (human melanoma)
PC-3 = assay: The compound was tested in vitro for cytotoxic activity against PC-3 cell line (human prostate carcinoma)
BT-549 = assay: The compound was tested in vitro for cytotoxic activity against BT-549 cell line (human breast carcinoma)
HT-29 = assay: The compound was tested in vitro for cytotoxic activity against HT-29 cell line (human colon adenocarcinoma)
L1210 = assay: The compound was tested in vitro for cytotoxic activity against L1210 cell line (mouse leukemia)
OVCAR-3 = assay: The compound was tested in vitro for cytotoxic activity against OVCAR-3 cell line (human ovarian carcinoma)
H322 = assay: The compound was tested in vitro for cytotoxic activity against H 322 cell line (human lung adenocarcinoma); conditions: NCI-H322
SiHa = assay: The compound was tested in vitro for cytotoxic activity against SIHA cell line (human cervix carcinoma)

CC(C)[C@H]1C(=O)OC[C@@H](NC(=O)c2nc3ccccc3cc2O)C(=O)N2CCCC[C@H]2C(=O)NCC(=O)N(C)CC(=O)N(C)[C@@H](C(C)C)C(=O)OC[C@@H](NC(=O)c2nc3ccccc3cc2O)C(=O)N2CCCC[C@H]2C(=O)NCC(=O)N(C)CC(=O)N1C
IC50 (HL-60): 80 nM | IC50 (B16): 0.4 nM | IC50 [1]: 0.4 nM | IC50 (786-0): 8 nM | IC50 [2]: 10 nM | IC50 (MOLT-4): 0.7 nM | IC50 (MCF7): 300 nM | IC50 (SK-MEL-28): 1 nM | IC50 (PC-3): 0.2 nM | IC50 (BT-549): 1 nM | IC50 (HT-29): 1 nM | IC50 (L1210): 0.02 nM | IC50 (OVCAR-3): 4 nM | IC50 (H322): 20 nM | IC50 (SiHa): 0.3 nM

CC(C)[C@H]1C(=O)OC[C@@H](NC(=O)c2ccc3ccccc3n2)C(=O)N2CCCC[C@H]2C(=O)NCC(=O)N(C)CC(=O)N(C)[C@@H](C(C)C)C(=O)OC[C@@H](NC(=O)c2ccc3ccccc3n2)C(=O)N2CCCC[C@H]2C(=O)NCC(=O)N(C)CC(=O)N1C
IC50 (HL-60): 0.001 nM | IC50 (B16): 0.06 nM | IC50 [1]: 0.04 nM | IC50 (786-0): 0.01 nM | IC50 [2]: 0.002 nM | IC50 (MOLT-4): 3 nM | IC50 (MCF7): 0.04 nM | IC50 (SK-MEL-28): 0.001 nM | IC50 (PC-3): 0.001 nM | IC50 (BT-549): 0.01 nM | IC50 (HT-29): 0.01 nM | IC50 (L1210): 0.2 nM | IC50 (OVCAR-3): 1 nM | IC50 (H322): 10 nM | IC50 (SiHa): 0.001 nM
